From patent publication US9145351B2, “Azole derivatives, methods for producing the same, intermediate thereof, agro-horticultural agents” (KUREHA CORPORATION, priority 2009, dated 2015)

What was measured:
Format in all cases: cell-based
[1] = tested on: Alternaria alternata; experiment: Plate medium fungicidal assay, Alternaria blotch A.m (Experimental Example 5); conditions: for inhibition at 5 µg/mL / inhibition at 50 µg/mL: Alternaria alternata, read-out: growth inhibition grade A.m
Method: (§1) In this Experimental Example, the fungicidal effects of the inventive compounds on various phytopathogenic fungi for plants and hazardous microorganism for industrial materials were examined by the methods described below. Each inventive compound was dissolved in 2 ml of dimethyl sulfoxide. 0.6 ml of this solution was added to 60 nil of a PDA medium (potato dextrose agar medium) at about 60 degrees C., which was mixed thoroughly in a 100-ml conical flask, and poured into a dish, where it was solidified, thereby obtaining a plate medium containing the inventive compound at 50 mg/L and 5 mg/L. On the other hand, a subject microorganism previously cultured on a plate medium was cut out using a cork borer whose diameter was 4 mm, and inoculated to the test compound-containing plate medium described above. […] The growth degree of the microorganism on the test compound-containing plate medium thus observed was compared with the growth degree of the microorganism in the untreated group, and % mycelial growth inhibition was calculated by the following equation. R=100(dc−dt)/dc wherein R=% mycelial extension inhibition, dc=flora diameter in untreated plate, dt=flora diameter in treated plate. The results obtained as described above were evaluated as one of the 5 grades according to the following criteria. […] Alternaria blotch (Alternaria alternata) A.m

[2] = tested on: Rhynchosporium secalis; experiment: Plate medium fungicidal assay, barley leaf blotch R.sec (Experimental Example 5); conditions: for inhibition at 5 µg/mL / inhibition at 50 µg/mL: Rhynchosporium secalis, read-out: growth inhibition grade R.sec
Method: as §1, with “Barley leaf” for “Alternaria”, “(Rhynchosporium secalis) R.sec” for “(Alternaria alternata) A.m”

[3] = tested on: Giberella fujikuroi; experiment: Plate medium fungicidal assay, rice bakanae disease G.f (Experimental Example 5); conditions: for inhibition at 5 µg/mL / inhibition at 50 µg/mL: read-out: growth inhibition grade G.f
Method: as §1, with “Rice bakanae disease (Giberella fujikuroi) G.f” for “Alternaria blotch (Alternaria alternata) A.m”

[4] = tested on: Botritis cinerea; experiment: Plate medium fungicidal assay, gray mold B.c (Experimental Example 5); conditions: for inhibition at 5 µg/mL / inhibition at 50 µg/mL: read-out: growth inhibition grade B.c
Method: as §1, with “Gray mold (Botritis cinerea) B.c” for “Alternaria blotch (Alternaria alternata) A.m”

[5] = plate medium containing compound at 5 mg/L
[6] = plate medium containing compound at 50 mg/L

| SMILES | inhibition at 5 µg/mL ([1]; plate medium, 5 mg/L) [%] | inhibition at 50 µg/mL ([1]; plate medium, 50 mg/L) [%] | inhibition at 5 µg/mL ([2]; plate medium, 5 mg/L) [%] | inhibition at 50 µg/mL ([2]; plate medium, 50 mg/L) [%] | inhibition at 5 µg/mL ([3]; plate medium, 5 mg/L) [%] | inhibition at 50 µg/mL ([3]; plate medium, 50 mg/L) [%] | inhibition at 5 µg/mL ([4]; plate medium, 5 mg/L) [%] | inhibition at 50 µg/mL ([4]; plate medium, 50 mg/L) [%] | Growth inhibition grade, A.m ([1]; plate medium, 5 mg/L) | Growth inhibition grade, A.m ([1]; plate medium, 50 mg/L) | Growth inhibition grade, R.sec ([2]; plate medium, 5 mg/L) | Growth inhibition grade, R.sec ([2]; plate medium, 50 mg/L) | Growth inhibition grade, G.f ([3]; plate medium, 5 mg/L) | Growth inhibition grade, G.f ([3]; plate medium, 50 mg/L) | Growth inhibition grade, B.c ([4]; plate medium, 5 mg/L) | Growth inhibition grade, B.c ([4]; plate medium, 50 mg/L) | further results |
| --- | --- | --- | --- | --- | --- | --- | --- | --- | --- | --- | --- | --- | --- | --- | --- | --- | --- |
| O[C@]1(Cn2cncn2)[C@@H](Cc2ccc(Cl)cc2)CC[C@@H]1C(F)(F)F (racemic) [Compound I-365, (1RS,2SR,5RS)-5-(4-chlorobenzyl)-2-trifluoromethyl-1-(1H-1,2,4-triazol-1-ylmethyl)cyclopentanol] | 20 to 40 | > 80 | 20 to 40 | > 80 | < 20 | > 80 | < 20 | > 80 | – | – | – | – | – | – | – | – | – |
| C[C@@]1(CCl)CC[C@H](Cc2ccc(Cl)cc2)[C@]1(O)Cn1cncn1 (racemic) [Compound I-401, (1RS,2RS,5RS)-5-(4-chlorobenzyl)-2-chloromethyl-2-methyl-1-[1,2,4]triazol-1-ylmethylcyclopentanol] | 60 to 80 | > 80 | > 80 | > 80 | > 80 | > 80 | > 80 | > 80 | – | – | – | – | – | – | – | – | – |
| CC1(C)CCC(Cc2ccc(Cl)cc2)C1(O)Cn1ncnc1S (racemic) [compound (2)] | – | – | – | – | – | – | – | – | 4 (% Mycerial growth inhibition of less than 80 to 60% or higher) | 4 (% Mycerial growth inhibition of less than 80 to 60% or higher) | 5 (% Mycerial growth inhibition of 80% or higher) | 5 (% Mycerial growth inhibition of 80% or higher) | 3 (% Mycelial growth inhibition of less than 60 to 40% or higher) | 4 (% Mycerial growth inhibition of less than 80 to 60% or higher) | 2 (% Mycerial growth inhibition of less than 40 to 20% or higher) | 5 (% Mycerial growth inhibition of 80% or higher) | – |
| C[C@]1(CCl)CC[C@@H](Cc2ccc(-c3ccccc3)cc2)[C@]1(O)Cn1cncn1 (relative stereo) [Compound I-82] | – | – | – | – | – | – | – | – | – | – | – | – | – | – | – | – | Growth inhibition grade, A.m [1, 5]: 5 (% Mycerial growth inhibition of 80% or higher); Growth inhibition grade, A.m [1, 6]: 5 (% Mycerial growth inhibition of 80% or higher); Growth inhibition grade, R.sec [2, 5]: 5 (% Mycerial growth inhibition of 80% or higher); Growth inhibition grade, R.sec [2, 6]: 5 (% Mycerial growth inhibition of 80% or higher); Growth inhibition grade, G.f [3, 5]: 5 (% Mycerial growth inhibition of 80% or higher); Growth inhibition grade, G.f [3, 6]: 5 (% Mycerial growth inhibition of 80% or higher); Growth inhibition grade, B.c [4, 5]: 5 (% Mycerial growth inhibition of 80% or higher); Growth inhibition grade, B.c [4, 6]: 5 (% Mycerial growth inhibition of 80% or higher) |
| C[C@@]1(CCl)CC[C@@H](Cc2cccc(Cl)c2)[C@]1(O)Cn1cncn1 (relative stereo) [Compound I-174] | – | – | – | – | – | – | – | – | 5 (% Mycerial growth inhibition of 80% or higher) | 5 (% Mycerial growth inhibition of 80% or higher) | 5 (% Mycerial growth inhibition of 80% or higher) | 5 (% Mycerial growth inhibition of 80% or higher) | 5 (% Mycerial growth inhibition of 80% or higher) | 5 (% Mycerial growth inhibition of 80% or higher) | 5 (% Mycerial growth inhibition of 80% or higher) | 5 (% Mycerial growth inhibition of 80% or higher) | – |
| C[C@]1(CCl)CC[C@H](Cc2cccc(Cl)c2)[C@]1(O)Cn1cncn1 (relative stereo) [Compound I-374] | – | – | – | – | – | – | – | – | 4 (% Mycerial growth inhibition of less than 80 to 60% or higher) | 5 (% Mycerial growth inhibition of 80% or higher) | 5 (% Mycerial growth inhibition of 80% or higher) | 5 (% Mycerial growth inhibition of 80% or higher) | 5 (% Mycerial growth inhibition of 80% or higher) | 5 (% Mycerial growth inhibition of 80% or higher) | 5 (% Mycerial growth inhibition of 80% or higher) | 5 (% Mycerial growth inhibition of 80% or higher) | – |
